From patent publication US7429618B2, “Potassium channel modulators” (Neurosearch A/S, priority 2002, dated 2008) come the findings set out here.

As usually defined, the melting point is the temperature of the solid-liquid transition. In turn, `COP(=O)(OC)C(c1ccc(F)cc1)(c1ccc(F)cc1)c1ccc(F)cc1` registered a melting point of 131.6 °C.
As to `COP(=O)(OC)C(c1ccc(F)cc1)(c1ccccc1F)c1ccccc1Cl` (centres unmarked), the melting point was in the range of 131.5 to 132.5 °C.
In the case of `COP(=O)(OC)C(c1ccc(F)cc1)(c1ccc(F)cc1)c1ccc(Cl)cc1` it was 136 to 137 °C.
In the case of `COP(=O)(OC)C(c1ccc(F)cc1)(c1ccc(F)cc1)c1ccccc1F` it was 136.6 °C.
In the case of `Fc1ccc(C(OP2OCCO2)(c2ccc(F)cc2)c2ccccc2F)cc1` it was 163 to 164 °C; in that of `Fc1ccc(C(OP2OCCO2)(c2ccc(F)cc2)c2ccc(F)cc2)cc1`, 195 to 196 °C; in that of `O=[N+]([O-])c1ccc(OC(c2ccc(F)cc2)(c2ccc(F)cc2)c2nccs2)cc1C(F)(F)F` [Compound 1, 2-[Bis-(4-fluoro-phenyl)-(4-nitro-3-trifluoromethyl-phenoxy)-methyl]-thiazole], 88.6 to 89.5 °C.
For the compound `C=CCC(C#N)(c1ccc(F)cc1)c1ccccc1F` (centres unmarked) [Compound 4, 2-(2-Fluoro-phenyl)-2-(4-fluoro-phenyl)-pent-4-enenitrile], the melting point lay within 215 to 219 °C.
Regarding `Cn1ccnc1SC(c1ccc(F)cc1)(c1ccc(F)cc1)c1ccc(F)cc1` [Compound 5-11, 1-Methyl-2-[tris-(4-fluorophenyl)-methylsulfanyl]-1H-imidazole], the melting point is 135.5 to 140.5 °C.
Turning to `[O-][n+]1ccccc1SC(c1ccc(F)cc1)(c1ccc(F)cc1)c1ccc(F)cc1` [Compound 5-13, 2-[Tris-(4-fluorophenyl)-methylsulfanyl]-pyridine-N-oxide], the melting point lay in the range of 147.7 to 151.8 °C.
In the case of `CCN(CC)C(=O)CSC(c1ccc(F)cc1)(c1ccc(F)cc1)c1ccccc1F` [Compound 5-14, 2-[Bis-(4-fluoro-phenyl)-(2-fluoro-phenyl)-methylsulfanyl]-N,N-diethyl-acetamide] it was 122 to 123 °C; in that of `CN(C(=O)CSC(c1ccc(F)cc1)(c1ccc(F)cc1)c1ccccc1F)c1ccccc1` [Compound 5-15, 2-[Bis-(4-fluoro-phenyl)-(2-fluoro-phenyl)-methylsulfanyl]-N-methyl-N-phenyl-acetamide], 120 to 121 °C.
In the case of `O=C(CSC(c1ccc(F)cc1)(c1ccc(F)cc1)c1ccccc1F)N1CCCCC1` [Compound 5-16, 2-[Bis-(4-fluoro-phenyl)-(2-fluoro-phenyl)-methylsulfanyl]-1-piperidin-1-yl-ethanone] it was 128 to 129 °C; in that of `NC(=O)CSC(c1ccc(F)cc1)(c1ccc(F)cc1)c1ccccc1F` [Compound 5-17, 2-[Bis-(4-fluoro-phenyl)-(2-fluoro-phenyl)-methylsulfanyl]-acetamide], 119 to 120 °C; in that of `CC(SC(c1ccc(F)cc1)(c1ccc(F)cc1)c1ccccc1F)C(N)=O` (centres unmarked) [Compound 5-18, 2-[Bis-(4-fluoro-phenyl)-(2-fluoro-phenyl)-methylsulfanyl]-propionamide], 133 to 134 °C.
As for `N#CCSC(c1ccc(F)cc1)(c1ccc(F)cc1)c1ccccc1F` [Compound 5-19, [Bis-(4-fluoro-phenyl)-(2-fluoro-phenyl)-methylsulfanyl]-acetonitrile], the figure is 111 to 112 °C.
`O=C(O)CSC(c1ccc(F)cc1)(c1ccc(F)cc1)c1ccccc1F` [Compound 5-20, [(2-Fluoro-phenyl)-bis-(4-fluoro-phenyl)-methylsulfanyl]-acetic acid]: the melting point lay in the range of 112 to 113 °C.
As for `CC(C)C(C#N)(c1ccc(F)cc1)c1ccc(F)cc1` [Compound 6, 2,2-Bis-(4-fluoro-phenyl)-3-methyl-butyronitrile], the figure is 142.3 to 147 °C.
In turn, `CS(=O)(=O)C(c1ccc(F)cc1)(c1ccc(F)cc1)c1ccc(F)cc1` [Compound 7-1, Methyl tris(4-fluorophenyl)methyl sulfone] returned a melting point of 140.6 to 145.3 °C.
As for `O=S(=O)(c1ccccc1)C(c1ccc(F)cc1)(c1ccc(F)cc1)c1ccc(F)cc1` [Compound 7-7, Phenyl tris(4-fluorophenyl)methyl sulfone], the figure is 157.4 to 160.6 °C.
In the case of `CS(=O)(=O)C(c1ccc(F)cc1)(c1ccc(F)cc1)c1ccccc1F` [Compound 7-14, Methanesulphonyl-2-fluorophenyl-bis-(4-fluoro-phenyl) methane] it was 147 to 149 °C; in that of `O=P(O)(O)C(c1ccc(F)cc1)(c1ccc(F)cc1)c1ccccc1F` [Compound 10-14, [Bis-(4-fluoro-phenyl)-(2-fluoro-phenyl)-methyl]-phosphonic acid], 228 to 230 °C; in that of `Cc1ccc(C(c2ccc(F)cc2)(c2ccc(F)cc2)P(=O)(O)O)cc1` [Compound 10-15, [Bis-(4-fluoro-phenyl)-p-tolyl-methyl]-phosphonic acid], 240 °C (dec.).
As for `N#CC(c1ccc(F)cc1)(c1ccc(F)cc1)C(c1ccccc1)c1ccccc1` [Compound 12, 2,2-Bis-(4-fluoro-phenyl)-3,3-diphenyl-propionitrile], the figure is 208 to 212.5 °C; as for `N#CC(c1ccc(F)cc1)(c1ccccc1F)C(c1ccccc1)c1ccccc1` (centres unmarked) [Compound 13, 2-(2-Fluoro-phenyl)-2-(4-fluoro-phenyl)-3,3-diphenyl-propionitrile], 210 to 215.3 °C.
Compound `CC(=O)C(C#N)(c1ccc(F)cc1)c1ccc(F)cc1` [Compound 18, 2,2-Bis-(4-fluoro-phenyl)-3-oxo-butyronitrile] showed a melting point of under 50 °C.
In turn, `COC(=O)C(C#N)(c1ccc(F)cc1)c1ccccc1F` (centres unmarked) [Compound 22, Cyano-(4-fluoro-phenyl)-(2-fluoro-phenyl)-acetic acid methyl ester] returned a melting point of 104 to 105 °C.
In turn, `N#CCC(C#N)(c1ccc(F)cc1)c1ccc(F)cc1` [Compound 24, 2,2-Bis-(4-fluoro-phenyl)-succinonitrile] had a melting point of 93 to 94 °C.
As for `CCOC(=O)C(C(=O)OCC)C(C#N)(c1ccc(F)cc1)c1ccc(F)cc1` [Compound 27, 2-[Cyano-bis-(4-fluoro-phenyl)-methyl]-malonic acid diethyl ester], the figure is 117 to 119 °C.
